# Data published in patent US20110009345A1 (priority 2009, published 2011).
# No end group written: not given here.
# Test system: adjuvant-induced arthritis
# Conditions: male Sprague-Dawley rats, by gavage during 10 days
substance,measurement,value
"YGSRS [peptide, tyrosine-glycine-serine-arginine-serine]",effect on body weight,without inducing weight loss
